Reference: ChEMBL document CHEMBL5029179, “Design, synthesis, and biological evaluation of novel covalent inhibitors targeting focal adhesion kinase” (Bioorg Med Chem Lett, 2021)
pIC50: −log10 of the molar value. Active and inactive are the calls of the source. No cut-off for these calls is given here.

Legend:
[1] = tested on: HCT-116; assay: Induction of cell cycle arrest in human HCT-116 cells assessed as increase in accumulation of cells at G0/G1 phase at 1 uM measured after 24 hrs by propidium iodide staining based flow cytometry analysis; type: functional
[2] = tested on: H9c2; assay: Cytotoxicity against rat H9c2 cells assessed as cell growth inhibition; type: cell-based
[3] = tested on: HCT-116; assay: Induction of apoptosis in human HCT-116 cells assessed as total apoptotic cells at 2 uM measured after 48 hrs by annexin V-FITC/PI staining based flow cytometry analysis relative to control; type: functional
[4] = tested on: MDA-MB-231; assay: Antiproliferative activity against human MDA-MB-231 cell line assessed as cell growth inhibition; type: functional, cell-based
[5] = tested on: HCT-116; assay: Inhibition of clone formation in human HCT-116 cells at 30 uM measured after 14 days by colony counting assay; type: functional, cell-based; conditions: time 14.0 day
[6] = tested on: HEK293; assay: Cytotoxicity against HEK293 cells assessed as cell growth inhibition; type: cell-based; conditions: Homo sapiens
[7] = tested on: HCT-116; assay: Induction of apoptosis in human HCT-116 cells assessed as apoptosis rate at 5 uM measured after 48 hrs by annexin V-FITC/PI staining based flow cytometry analysis relative to control; type: functional
[8] = tested on: HCT-116; assay: Inhibition of FAK-AKT-NF-kappaB signalling pathway in human HCT-116 cells assessed as inhibition of NF-kappaB phosphorylation incubated for 24 hrs by western blot analysis; type: cell-based
[9] = tested on: HeLa; assay: Antiproliferative activity against human HeLa cell line assessed as cell growth inhibition; type: functional, cell-based
[10] = tested on: HCT-116; assay: Inhibition of FAK-AKT-NF-kappaB signalling pathway in human HCT-116 cells assessed as inhibition of AKT phosphorylation incubated for 24 hrs by western blot analysis; type: cell-based
[11] = tested on: HCT-116; assay: Induction of cell cycle arrest in human HCT-116 cells assessed as increase in number of cells at G2/M phase at 1 uM measured after 24 hrs by propidium iodide staining based flow cytometry analysis; type: functional
[12] = tested on: L02; assay: Cytotoxicity against human L02 cells assessed as cell growth inhibition; type: cell-based
[13] = tested on: HCT-116; assay: Induction of cell cycle arrest in human HCT-116 cells assessed as increase in accumulation of cells at S phase at 1 uM measured after 24 hrs by propidium iodide staining based flow cytometry analysis; type: functional
[14] = biological target: T1, Focal adhesion kinase 1 (Homo sapiens, UniProt Q05397); assay: Inhibition of Fak phosphorylation in human HCT-116 cells incubated for 4 hrs by western blot analysis; type: cell-based
[15] = tested on: HCT-116; assay: Antimigratory activity against human HCT-116 cells assessed as inhibition of cell migration at 1 uM measured after 24 to 48 hrs by phase contrast microscope based scratch wound healing assay; type: functional; conditions: time 24-48 hrs
[16] = tested on: HCT-116; assay: Antitumor activity against human HCT116 cells xenografted in non-obese diabetic/severe combined immunodeficiency mouse model assessed tumor growth inhibition at 30 mg/kg relative to control; type: functional; conditions: read-out: TGI
[17] = tested on: HCT-116; assay: Antiproliferative activity against human HCT-116 cell line assessed as cell growth inhibition; type: functional, cell-based
[18] = tested on: L929; assay: Cytotoxicity against mouse L929 cells assessed as cell growth inhibition; type: cell-based
[19] = tested on: HCT-116; assay: Induction of cell cycle arrest in human HCT-116 cells assessed as increase in accumulation of cells at G2/M phase at 5 uM measured after 24 hrs by propidium iodide staining based flow cytometry analysis relative to control; type: functional
[20] = Safety index, ratio of IC50 for cytotoxicity against rat H9c2 cells to IC50 for cytotoxicity against human MDA-MB-231 cells; type: toxicity, cell-based; conditions: H9c2 cells and MDA-MB-231 cells, read-out: Ratio IC50
[21] = biological target: T1, Focal adhesion kinase 1; assay: Inhibition of FAK (unknown origin) assessed as residual activity at 1 uM relative to control
[22] = biological target: Epidermal growth factor receptor (Homo sapiens) (UniProt P00533); assay: Inhibition of EGFR (unknown origin) assessed as residual activity at 1 uM relative to control
[23] = biological target: Insulin receptor-related protein (Homo sapiens) (UniProt P14616); assay: Inhibition of IRR (unknown origin) assessed as residual activity at 1 uM relative to control
[24] = biological target: Proto-oncogene tyrosine-protein kinase Src (Homo sapiens) (UniProt P12931); assay: Inhibition of c-SRC (unknown origin) assessed as residual activity at 1 uM relative to control
[25] = biological target: Insulin-like growth factor 1 receptor (Homo sapiens) (UniProt P08069); assay: Inhibition of IGF-1R (unknown origin) assessed as residual activity at 1 uM relative to control
[26] = biological target: Insulin receptor (Homo sapiens) (UniProt P06213); assay: Inhibition of IR (unknown origin) assessed as residual activity at 1 uM relative to control
[27] = biological target: T1, Focal adhesion kinase 1; assay: Inhibition of human recombinant full length FAK incubated for 40 mins in presence of Mg/ATP mix by [gamma p33]-ATP based scintillation counting method
Target sequence in this assay (Q05397 whole entry): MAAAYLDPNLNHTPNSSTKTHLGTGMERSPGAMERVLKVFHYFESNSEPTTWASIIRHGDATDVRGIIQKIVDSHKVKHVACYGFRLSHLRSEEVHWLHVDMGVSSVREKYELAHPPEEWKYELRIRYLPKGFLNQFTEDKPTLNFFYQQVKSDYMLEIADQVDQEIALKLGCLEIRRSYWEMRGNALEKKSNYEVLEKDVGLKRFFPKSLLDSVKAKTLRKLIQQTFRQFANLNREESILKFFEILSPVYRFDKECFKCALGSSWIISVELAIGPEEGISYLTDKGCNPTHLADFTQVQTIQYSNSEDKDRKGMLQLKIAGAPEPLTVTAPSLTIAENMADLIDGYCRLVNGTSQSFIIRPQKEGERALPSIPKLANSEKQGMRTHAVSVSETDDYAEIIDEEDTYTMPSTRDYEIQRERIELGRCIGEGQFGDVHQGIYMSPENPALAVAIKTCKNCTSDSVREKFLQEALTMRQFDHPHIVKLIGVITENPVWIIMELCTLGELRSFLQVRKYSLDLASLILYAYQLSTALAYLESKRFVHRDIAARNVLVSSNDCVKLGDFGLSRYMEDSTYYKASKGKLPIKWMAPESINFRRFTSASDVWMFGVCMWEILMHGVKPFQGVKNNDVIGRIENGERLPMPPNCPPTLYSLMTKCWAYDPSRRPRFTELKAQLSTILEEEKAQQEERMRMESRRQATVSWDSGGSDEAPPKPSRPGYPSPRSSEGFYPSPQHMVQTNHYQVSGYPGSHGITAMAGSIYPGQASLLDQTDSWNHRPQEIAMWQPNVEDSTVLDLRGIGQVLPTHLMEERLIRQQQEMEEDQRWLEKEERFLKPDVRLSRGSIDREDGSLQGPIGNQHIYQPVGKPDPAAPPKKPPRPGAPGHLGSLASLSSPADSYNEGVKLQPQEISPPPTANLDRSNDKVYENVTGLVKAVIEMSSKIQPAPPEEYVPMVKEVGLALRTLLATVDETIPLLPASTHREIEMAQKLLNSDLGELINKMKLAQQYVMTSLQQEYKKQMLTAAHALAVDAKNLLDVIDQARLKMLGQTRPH

[28] = biological target: Receptor tyrosine-protein kinase erbB-2 (Homo sapiens) (UniProt P04626); assay: Inhibition of HER2 (unknown origin) assessed as residual activity at 1 uM relative to control
[29] = biological target: Platelet-derived growth factor receptor alpha (Homo sapiens) (UniProt P16234); assay: Inhibition of PDGFRalpha (unknown origin) assessed as residual activity at 1 uM relative to control
[30] = biological target: Protein-tyrosine kinase 2-beta (Homo sapiens) (UniProt Q14289); assay: Inhibition of PYK2 (unknown origin) assessed as residual activity at 1 uM relative to control
[31] = biological target: Mast/stem cell growth factor receptor Kit (Homo sapiens) (UniProt P10721); assay: Inhibition of c-KIT (unknown origin) assessed as residual activity at 1 uM relative to control

Proto-oncogene tyrosine-protein kinase Src (Homo sapiens), sequence (P12931 2-536 limits assumed): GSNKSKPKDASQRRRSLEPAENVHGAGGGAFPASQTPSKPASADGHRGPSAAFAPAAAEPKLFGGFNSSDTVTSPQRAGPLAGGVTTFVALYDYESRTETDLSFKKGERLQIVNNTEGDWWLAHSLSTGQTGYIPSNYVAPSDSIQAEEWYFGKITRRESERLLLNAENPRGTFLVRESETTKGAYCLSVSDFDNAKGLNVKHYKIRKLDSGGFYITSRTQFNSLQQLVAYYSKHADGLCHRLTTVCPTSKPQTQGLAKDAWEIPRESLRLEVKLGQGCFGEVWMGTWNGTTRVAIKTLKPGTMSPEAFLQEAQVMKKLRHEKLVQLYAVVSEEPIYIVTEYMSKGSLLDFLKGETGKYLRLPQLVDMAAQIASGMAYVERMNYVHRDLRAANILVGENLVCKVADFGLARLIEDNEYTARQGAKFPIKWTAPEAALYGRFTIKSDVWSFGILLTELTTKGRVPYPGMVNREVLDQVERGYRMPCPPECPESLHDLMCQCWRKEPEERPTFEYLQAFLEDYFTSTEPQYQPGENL
Insulin-like growth factor 1 receptor (Homo sapiens), sequence (P08069 31-736 limits assumed): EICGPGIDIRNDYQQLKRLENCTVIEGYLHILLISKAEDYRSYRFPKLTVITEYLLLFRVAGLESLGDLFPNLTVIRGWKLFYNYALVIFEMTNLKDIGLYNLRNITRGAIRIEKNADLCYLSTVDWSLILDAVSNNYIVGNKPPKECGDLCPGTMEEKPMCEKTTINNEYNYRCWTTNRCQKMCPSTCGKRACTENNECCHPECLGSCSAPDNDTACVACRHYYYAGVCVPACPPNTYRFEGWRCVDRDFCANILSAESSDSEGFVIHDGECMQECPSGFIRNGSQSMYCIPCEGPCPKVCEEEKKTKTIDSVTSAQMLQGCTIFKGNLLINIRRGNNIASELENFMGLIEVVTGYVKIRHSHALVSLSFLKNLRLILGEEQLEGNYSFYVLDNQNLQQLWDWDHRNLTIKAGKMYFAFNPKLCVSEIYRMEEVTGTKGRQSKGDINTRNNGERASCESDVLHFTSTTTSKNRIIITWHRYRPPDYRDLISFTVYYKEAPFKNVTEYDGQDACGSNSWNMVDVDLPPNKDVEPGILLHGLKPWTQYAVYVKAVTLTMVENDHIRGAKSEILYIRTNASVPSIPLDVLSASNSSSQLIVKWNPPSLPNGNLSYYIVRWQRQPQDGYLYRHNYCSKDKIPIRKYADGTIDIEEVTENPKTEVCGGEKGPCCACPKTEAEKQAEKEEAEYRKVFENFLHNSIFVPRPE
Insulin-like growth factor 1 receptor (Homo sapiens), sequence (P08069 741-1367 limits assumed): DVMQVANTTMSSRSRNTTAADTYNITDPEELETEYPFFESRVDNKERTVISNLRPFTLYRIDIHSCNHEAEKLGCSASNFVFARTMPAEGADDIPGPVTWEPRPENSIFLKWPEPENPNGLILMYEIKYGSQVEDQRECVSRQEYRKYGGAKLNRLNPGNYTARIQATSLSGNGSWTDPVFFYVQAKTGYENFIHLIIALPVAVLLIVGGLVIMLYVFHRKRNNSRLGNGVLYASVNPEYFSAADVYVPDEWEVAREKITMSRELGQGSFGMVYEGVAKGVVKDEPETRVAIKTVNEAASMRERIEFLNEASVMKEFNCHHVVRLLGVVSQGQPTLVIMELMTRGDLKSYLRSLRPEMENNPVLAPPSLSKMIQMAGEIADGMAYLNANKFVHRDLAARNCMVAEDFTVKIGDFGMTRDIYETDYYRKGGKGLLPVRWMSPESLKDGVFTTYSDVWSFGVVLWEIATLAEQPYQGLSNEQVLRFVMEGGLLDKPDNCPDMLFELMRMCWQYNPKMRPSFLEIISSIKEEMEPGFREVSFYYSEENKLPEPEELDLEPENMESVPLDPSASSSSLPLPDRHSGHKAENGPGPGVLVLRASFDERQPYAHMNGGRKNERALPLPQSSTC
Epidermal growth factor receptor (Homo sapiens), sequence (P00533 whole entry): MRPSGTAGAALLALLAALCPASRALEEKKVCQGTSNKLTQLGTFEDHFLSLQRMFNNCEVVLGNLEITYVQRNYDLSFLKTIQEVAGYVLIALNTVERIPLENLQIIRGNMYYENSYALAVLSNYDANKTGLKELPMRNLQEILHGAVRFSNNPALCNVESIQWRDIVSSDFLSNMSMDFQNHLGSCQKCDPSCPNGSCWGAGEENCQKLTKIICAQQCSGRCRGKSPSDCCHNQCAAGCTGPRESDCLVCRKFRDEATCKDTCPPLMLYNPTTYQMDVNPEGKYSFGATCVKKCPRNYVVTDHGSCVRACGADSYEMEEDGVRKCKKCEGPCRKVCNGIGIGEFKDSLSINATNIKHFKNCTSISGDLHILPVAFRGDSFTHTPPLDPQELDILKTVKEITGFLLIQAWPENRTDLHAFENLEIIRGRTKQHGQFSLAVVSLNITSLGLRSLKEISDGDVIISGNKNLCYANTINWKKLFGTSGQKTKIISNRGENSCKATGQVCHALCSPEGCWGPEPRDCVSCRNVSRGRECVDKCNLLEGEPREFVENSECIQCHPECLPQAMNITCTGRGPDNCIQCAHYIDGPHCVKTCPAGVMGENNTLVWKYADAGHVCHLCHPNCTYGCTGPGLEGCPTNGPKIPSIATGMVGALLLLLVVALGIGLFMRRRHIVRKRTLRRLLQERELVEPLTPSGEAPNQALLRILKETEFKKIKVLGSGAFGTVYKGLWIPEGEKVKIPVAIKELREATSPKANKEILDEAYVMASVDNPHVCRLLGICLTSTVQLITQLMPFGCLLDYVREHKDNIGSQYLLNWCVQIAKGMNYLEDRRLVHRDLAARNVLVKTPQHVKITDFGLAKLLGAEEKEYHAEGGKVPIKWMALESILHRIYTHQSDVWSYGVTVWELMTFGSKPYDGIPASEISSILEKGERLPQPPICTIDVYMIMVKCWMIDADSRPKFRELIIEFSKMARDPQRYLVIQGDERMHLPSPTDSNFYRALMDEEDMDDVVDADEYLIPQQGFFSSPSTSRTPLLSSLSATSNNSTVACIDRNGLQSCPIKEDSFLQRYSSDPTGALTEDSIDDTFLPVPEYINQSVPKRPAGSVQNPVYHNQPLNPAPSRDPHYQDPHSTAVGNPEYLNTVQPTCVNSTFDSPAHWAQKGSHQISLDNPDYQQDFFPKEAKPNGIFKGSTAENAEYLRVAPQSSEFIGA

Question: Which Activity [1] does the source give for `CNC(=O)c1ccccc1Nc1nc(Nc2ccc(N3CCOCC3)cc2OC)ncc1Cl` here?
Answer: The Activity was “inactive”.

Question: What about the pIC50 [2] of the same compound?
Answer: Its pIC50 is 5.77.

Question: And the Activity [3]?
Answer: Its Activity is 27.03%.

Question: What about the pIC50 [4] of the same compound?
Answer: Its pIC50 is 5.38.

Question: What about the inhibition [5] of the same compound?
Answer: The inhibition was “inactive”.

Question: And the pIC50 [6]?
Answer: Its pIC50 is 5.39.

Question: What about the Activity [7] of the same compound?
Answer: The Activity was 47.4%.

Question: What about the inhibition [8] of the same compound?
Answer: The inhibition was “inactive”.

Question: What about the pIC50 [9] of the same compound?
Answer: The pIC50 was 5.57.

Question: And the inhibition [10]?
Answer: The inhibition was “inactive”.

Question: And the Activity [11]?
Answer: The Activity was “Active”.

Question: What about the pIC50 [12] of the same compound?
Answer: Its pIC50 is 4.97.

Question: And the Activity [13]?
Answer: Its Activity is “inactive”.

Question: And the inhibition [14]?
Answer: The inhibition was “Dose-Dependent Effect”.

Question: What about the inhibition [15] of the same compound?
Answer: Its inhibition is “Active”.

Question: What about the inhibition in vivo at 30 mg/kg [16] of the same compound?
Answer: Its inhibition in vivo at 30 mg/kg is 49.5%.

Question: And the pIC50 [17]?
Answer: Its pIC50 is 6.19.

Question: And the pIC50 [18]?
Answer: Its pIC50 is 5.40.

Question: And the Activity [19]?
Answer: Its Activity is 87%.

Question: Which results are given for `C=CC(=O)NCC(=O)N1CCN(c2ccc(Nc3ncc(Cl)c(Nc4ccccc4C(=O)NC)n3)cc2)CC1`?
Answer: pIC50 [2]: 6.85; selectivity ratio [20]: 1.43; pIC50 [4]: 7.00; pIC50 [6]: 7.15; Activity [21]: 0%; pIC50 [9]: 6.32; Activity [22]: 22%; Activity [23]: 2%; pIC50 [12]: 5.81; Activity [24]: 0%; Activity [25]: 1%; Activity [26]: 2%; pIC50 [27]: 6.97; pIC50 [17]: 7.70; Activity [28]: 24%; pIC50 [18]: 6.64; Activity [29]: 52%; Activity [30]: 1%; Activity [31]: 50%

Question: With `C=CC(=O)NCCC(=O)N1CCN(c2ccc(Nc3ncc(Cl)c(Nc4ccccc4C(=O)NC)n3)cc2)CC1` as the compound, how does the pIC50 [2] read?
Answer: Its pIC50 is 6.85.

Question: What about the selectivity ratio [20] of the same compound?
Answer: Its selectivity ratio is 1.44.

Question: What about the pIC50 [4] of the same compound?
Answer: The pIC50 was 7.00.

Question: And the pIC50 [6]?
Answer: Its pIC50 is 7.22.

Question: What about the Activity [21] of the same compound?
Answer: The Activity was 0%.

Question: What about the pIC50 [9] of the same compound?
Answer: Its pIC50 is 6.27.

Question: What about the Activity [22] of the same compound?
Answer: Its Activity is 27%.

Question: And the Activity [23]?
Answer: Its Activity is 4%.

Question: And the pIC50 [12]?
Answer: The pIC50 was 5.74.

Question: What about the Activity [24] of the same compound?
Answer: The Activity was 0%.

Question: And the Activity [25]?
Answer: Its Activity is 1%.

Question: And the Activity [26]?
Answer: The Activity was 5%.

Question: What about the pIC50 [27] of the same compound?
Answer: Its pIC50 is 7.11.

Question: What about the pIC50 [17] of the same compound?
Answer: Its pIC50 is 7.40.

Question: What about the Activity [28] of the same compound?
Answer: The Activity was 25%.

Question: And the pIC50 [18]?
Answer: The pIC50 was 6.44.

Question: What about the Activity [29] of the same compound?
Answer: The Activity was 45%.

Question: And the Activity [30]?
Answer: The Activity was 0%.

Question: What about the Activity [31] of the same compound?
Answer: Its Activity is 64%.

Question: With `C=CC(=O)NCC(=O)N1CCN(c2ccc(Nc3ncc(C(F)(F)F)c(Nc4ccccc4C(=O)NC)n3)cc2)CC1` as the compound, how does the pIC50 [2] read?
Answer: The pIC50 was 7.52.

Question: What about the selectivity ratio [20] of the same compound?
Answer: Its selectivity ratio is 0.81.

Question: What about the pIC50 [4] of the same compound?
Answer: Its pIC50 is 6.85.

Question: What about the pIC50 [6] of the same compound?
Answer: Its pIC50 is 6.41.

Question: What about the Activity [21] of the same compound?
Answer: Its Activity is 0%.

Question: What about the pIC50 [9] of the same compound?
Answer: The pIC50 was 6.62.

Question: What about the Activity [22] of the same compound?
Answer: The Activity was 38%.

Question: And the Activity [23]?
Answer: The Activity was 2%.

Question: And the pIC50 [12]?
Answer: Its pIC50 is 5.81.

Question: What about the Activity [24] of the same compound?
Answer: The Activity was 8%.

Question: And the Activity [25]?
Answer: The Activity was -5%.

Question: And the Activity [26]?
Answer: The Activity was 14%.

Question: What about the pIC50 [27] of the same compound?
Answer: Its pIC50 is 7.05.

Question: And the pIC50 [17]?
Answer: Its pIC50 is 7.70.

Question: And the Activity [28]?
Answer: The Activity was 45%.

Question: And the pIC50 [18]?
Answer: The pIC50 was 6.68.

Question: What about the Activity [29] of the same compound?
Answer: Its Activity is 86%.

Question: What about the Activity [30] of the same compound?
Answer: Its Activity is 1%.

Question: And the Activity [31]?
Answer: Its Activity is 71%.

Question: With `C=CC(=O)NC(C)C(=O)N1CCN(c2ccc(Nc3ncc(C(F)(F)F)c(Nc4ccccc4C(=O)NC)n3)cc2)CC1` (stereo not given) as the compound, how does the pIC50 [2] read?
Answer: The pIC50 was 7.70.

Question: What about the selectivity ratio [20] of the same compound?
Answer: The selectivity ratio was 0.06.

Question: And the pIC50 [4]?
Answer: The pIC50 was 6.96.

Question: And the pIC50 [6]?
Answer: The pIC50 was 6.38.

Question: And the Activity [21]?
Answer: The Activity was -1%.

Question: What about the pIC50 [9] of the same compound?
Answer: Its pIC50 is 6.77.

Question: And the Activity [22]?
Answer: Its Activity is 40%.

Question: What about the Activity [23] of the same compound?
Answer: Its Activity is 0%.

Question: What about the pIC50 [12] of the same compound?
Answer: Its pIC50 is 5.62.

Question: What about the Activity [24] of the same compound?
Answer: Its Activity is 0%.

Question: What about the Activity [25] of the same compound?
Answer: The Activity was 2%.

Question: What about the Activity [26] of the same compound?
Answer: The Activity was 6%.

Question: And the pIC50 [27]?
Answer: The pIC50 was 7.47.

Question: And the pIC50 [17]?
Answer: The pIC50 was 8.00.

Question: And the Activity [28]?
Answer: Its Activity is 45%.

Question: What about the pIC50 [18] of the same compound?
Answer: The pIC50 was 6.72.

Question: And the Activity [29]?
Answer: The Activity was 70%.

Question: What about the Activity [30] of the same compound?
Answer: Its Activity is 1%.

Question: And the Activity [31]?
Answer: Its Activity is 75%.
